What all share (test): relative viability (nuclei count vs DMSO), 5 days (fraction); higher = more cells survive
Compound in test [1]: C[As](C)SC[C@H](NC(=O)CC[C@H](N)C(=O)O)C(=O)NCC(=O)O [Darinaparsin] + N=C(N)NC(=N)NCCc1ccccc1 [Phenformin] (partner 250 µM)
Put shortly: (§1)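 Lung cancer cell lines were seeded in 1536-well plates and dosed by pin tool the next day, with either a single drug or a fixed anchor-drug dose combined with five library-drug doses (not always all listed) spaced in √10 steps. Five days later, one step fixed the cells and stained their nuclei (final 0.05% Triton X-100, 1% formaldehyde, 1 ug/ml Hoechst), and nuclei were counted on 4× images. Relative viability is the nuclei count in treated wells divided by the count in vehicle wells, and each value is the median of duplicate plates.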

Compound in the test “QS11 + Vorinostat”: C1CC2=C(C1)C=C(C=C2)OC3=NC(=C4C(=N3)N(C=N4)CC5=CC=C(C=C5)C6=CC=CC=C6)N[C@@H](CC7=CC=CC=C7)CO [QS11] + O=C(CCCCCCC(=O)Nc1ccccc1)NO [Vorinostat] (partner 1 µM)
Put shortly:
as §1

Compound in the test “AZ628 + Linsitinib”: CC1=C(C=C(C=C1)NC(=O)C2=CC(=CC=C2)C(C)(C)C#N)NC3=CC4=C(C=C3)N=CN(C4=O)C [AZ628] + C[C@]1(O)C[C@@H](c2nc(-c3ccc4ccc(-c5ccccc5)nc4c3)c3c(N)nccn32)C1 [Linsitinib] (partner 1 µM)
Put shortly: as §1

Compound in the test “QS11 + Tozasertib”: C1CC2=C(C1)C=C(C=C2)OC3=NC(=C4C(=N3)N(C=N4)CC5=CC=C(C=C5)C6=CC=CC=C6)N[C@@H](CC7=CC=CC=C7)CO [QS11] + Cc1cc(Nc2cc(N3CCN(C)CC3)nc(Sc3ccc(NC(=O)C4CC4)cc3)n2)n[nH]1 [Tozasertib] (partner 0.1 µM)
Put shortly: as §1

Regarding NCI-H1975, the relative viability in test [1] (first compound 0.08 µM) worked out at 0.448; in test [1] (first compound 0.8 µM) it was 0.43; in test [1] (first compound 2.53 µM) it was 0.413; in test [1] (first compound 8 µM) it was 0.427; in the test with QS11 + Vorinostat (first compound 0.08 µM), 0.669; with QS11 + Vorinostat (first compound 0.253 µM), 0.783. The relative viability in the test with QS11 + Vorinostat (first compound 0.8 µM) is 0.752; in the test with QS11 + Vorinostat (first compound 2.53 µM), 0.795; with QS11 + Vorinostat (first compound 8 µM) it was 0.654; with AZ628 + Linsitinib (first compound 0.08 µM) it was 0.908; in the test with AZ628 + Linsitinib (first compound 0.253 µM) it was 0.949; in the test with AZ628 + Linsitinib (first compound 0.8 µM), 0.895. The relative viability is 0.904 in the test with AZ628 + Linsitinib (first compound 2.53 µM); 0.647 with AZ628 + Linsitinib (first compound 8 µM); 0.823 with QS11 + Tozasertib (first compound 0.08 µM); 1.01 with QS11 + Tozasertib (first compound 0.253 µM); 0.585 in the test with QS11 + Tozasertib (first compound 0.8 µM); 0.408 in the test with QS11 + Tozasertib (first compound 2.53 µM). Moreover, the relative viability in the test with QS11 + Tozasertib (first compound 8 µM) came out at 0.225.

EPLC-272H: the relative viability was 0.237 in test [1] (first compound 0.8 µM); 0.251 in test [1] (first compound 2.53 µM); 0.267 in test [1] (first compound 8 µM); 0.371 with QS11 + Vorinostat (first compound 0.08 µM); 0.55 in the test with QS11 + Vorinostat (first compound 0.253 µM); 0.442 with QS11 + Vorinostat (first compound 0.8 µM). The relative viability with QS11 + Vorinostat (first compound 2.53 µM) turned out to be 0.479; in the test with QS11 + Vorinostat (first compound 8 µM), 0.276; with AZ628 + Linsitinib (first compound 0.08 µM), 1.26; in the test with AZ628 + Linsitinib (first compound 0.253 µM) it was 1.13; with AZ628 + Linsitinib (first compound 0.8 µM), 1.12; in the test with AZ628 + Linsitinib (first compound 2.53 µM) it was 1.08. The relative viability amounted to 0.834 with AZ628 + Linsitinib (first compound 8 µM); 0.17 with QS11 + Tozasertib (first compound 0.253 µM); 0.258 with QS11 + Tozasertib (first compound 0.8 µM); 0.248 with QS11 + Tozasertib (first compound 2.53 µM); 0.292 with QS11 + Tozasertib (first compound 8 µM).

Consider HCC-15, for which the relative viability in test [1] (first compound 0.08 µM) is 0.642; in test [1] (first compound 0.8 µM) it was 0.481; in test [1] (first compound 2.53 µM) it was 0.353; in test [1] (first compound 8 µM) it was 0.61; with QS11 + Vorinostat (first compound 0.08 µM) it was 0.861; with QS11 + Vorinostat (first compound 0.253 µM), 0.944. For the same cell line, the relative viability with QS11 + Vorinostat (first compound 0.8 µM) was found to be 0.651; in the test with QS11 + Vorinostat (first compound 2.53 µM), 0.84; with QS11 + Vorinostat (first compound 8 µM) it was 0.648; with AZ628 + Linsitinib (first compound 0.08 µM), 0.918; with AZ628 + Linsitinib (first compound 0.253 µM), 0.799; in the test with AZ628 + Linsitinib (first compound 0.8 µM) it was 0.704. Further, the relative viability in the test with AZ628 + Linsitinib (first compound 2.53 µM) came to 0.695; with AZ628 + Linsitinib (first compound 8 µM) it was 0.414; with QS11 + Tozasertib (first compound 0.08 µM), 0.363; in the test with QS11 + Tozasertib (first compound 0.253 µM), 0.523; with QS11 + Tozasertib (first compound 0.8 µM), 0.385; with QS11 + Tozasertib (first compound 2.53 µM) it was 0.257. Also, in the test with QS11 + Tozasertib (first compound 8 µM), the relative viability is 0.312.

On to COR-L 105, for which the relative viability in test [1] (first compound 0.08 µM) stood at 0.505; in test [1] (first compound 0.8 µM) it was 0.486; in test [1] (first compound 2.53 µM), 0.433; in test [1] (first compound 8 µM), 0.451; in the test with QS11 + Vorinostat (first compound 0.08 µM), 0.838; with QS11 + Vorinostat (first compound 0.253 µM) it was 1.03. The relative viability was 0.665 with QS11 + Vorinostat (first compound 0.8 µM); 0.794 with QS11 + Vorinostat (first compound 2.53 µM); 0.716 with QS11 + Vorinostat (first compound 8 µM); 0.933 in the test with AZ628 + Linsitinib (first compound 0.08 µM); 0.897 with AZ628 + Linsitinib (first compound 0.253 µM); 0.934 with AZ628 + Linsitinib (first compound 0.8 µM). Further, the relative viability with AZ628 + Linsitinib (first compound 2.53 µM) stood at 0.857; with AZ628 + Linsitinib (first compound 8 µM) it was 0.651; in the test with QS11 + Tozasertib (first compound 0.08 µM) it was 0.364; in the test with QS11 + Tozasertib (first compound 0.253 µM), 0.296; with QS11 + Tozasertib (first compound 0.8 µM) it was 0.335; in the test with QS11 + Tozasertib (first compound 2.53 µM), 0.391. Moreover, the relative viability with QS11 + Tozasertib (first compound 8 µM) stood at 0.336.

Consider NCI-H1915, for which the relative viability in test [1] (first compound 0.08 µM) is 0.404; in test [1] (first compound 0.8 µM), 0.373; in test [1] (first compound 2.53 µM) it was 0.359; in test [1] (first compound 8 µM) it was 0.375; with QS11 + Vorinostat (first compound 0.08 µM), 0.522; in the test with QS11 + Vorinostat (first compound 0.253 µM) it was 0.528. Moreover, the relative viability with QS11 + Vorinostat (first compound 2.53 µM) worked out at 0.467; with QS11 + Vorinostat (first compound 8 µM), 0.391; with AZ628 + Linsitinib (first compound 0.08 µM), 1.08; with AZ628 + Linsitinib (first compound 0.253 µM), 1.11; in the test with AZ628 + Linsitinib (first compound 0.8 µM), 1.07; with AZ628 + Linsitinib (first compound 2.53 µM), 0.85. Also, the relative viability in the test with AZ628 + Linsitinib (first compound 8 µM) worked out at 0.683; with QS11 + Tozasertib (first compound 0.08 µM) it was 0.472; with QS11 + Tozasertib (first compound 0.253 µM) it was 0.494; with QS11 + Tozasertib (first compound 2.53 µM), 0.432; with QS11 + Tozasertib (first compound 8 µM), 0.374.

On to NCI-H2347, for which the relative viability is 0.451 in test [1] (first compound 0.08 µM); 0.396 in test [1] (first compound 2.53 µM); 0.403 in test [1] (first compound 8 µM); 0.596 with QS11 + Vorinostat (first compound 0.08 µM); 0.579 with QS11 + Vorinostat (first compound 0.253 µM); 0.541 with QS11 + Vorinostat (first compound 0.8 µM). Moreover, the relative viability with QS11 + Vorinostat (first compound 2.53 µM) amounted to 0.662; in the test with QS11 + Vorinostat (first compound 8 µM), 0.56; with AZ628 + Linsitinib (first compound 0.08 µM), 0.719; with AZ628 + Linsitinib (first compound 0.253 µM) it was 0.928; in the test with AZ628 + Linsitinib (first compound 0.8 µM) it was 0.741; with AZ628 + Linsitinib (first compound 2.53 µM), 0.792. Besides, the relative viability with AZ628 + Linsitinib (first compound 8 µM) amounted to 0.639; in the test with QS11 + Tozasertib (first compound 0.08 µM), 0.434; with QS11 + Tozasertib (first compound 0.253 µM), 0.523; with QS11 + Tozasertib (first compound 0.8 µM) it was 0.51; in the test with QS11 + Tozasertib (first compound 2.53 µM), 0.436; in the test with QS11 + Tozasertib (first compound 8 µM), 0.572.

For the cell line EKVX, the relative viability in test [1] (first compound 0.08 µM) was 0.244; in test [1] (first compound 0.8 µM), 0.24; in test [1] (first compound 2.53 µM) it was 0.228; in test [1] (first compound 8 µM), 0.243; with QS11 + Vorinostat (first compound 0.08 µM) it was 0.642; with QS11 + Vorinostat (first compound 0.253 µM), 0.625. For the same cell line, the relative viability in the test with QS11 + Vorinostat (first compound 0.8 µM) was found to be 0.592; with QS11 + Vorinostat (first compound 2.53 µM), 0.567; in the test with QS11 + Vorinostat (first compound 8 µM), 0.545; with AZ628 + Linsitinib (first compound 0.08 µM), 1.18; in the test with AZ628 + Linsitinib (first compound 0.253 µM) it was 0.922; with AZ628 + Linsitinib (first compound 0.8 µM), 1. For the same cell line, the relative viability with AZ628 + Linsitinib (first compound 2.53 µM) is 1.03; with AZ628 + Linsitinib (first compound 8 µM), 0.824; with QS11 + Tozasertib (first compound 0.08 µM) it was 0.369; with QS11 + Tozasertib (first compound 0.253 µM) it was 0.367; with QS11 + Tozasertib (first compound 2.53 µM), 0.302; in the test with QS11 + Tozasertib (first compound 8 µM), 0.457.

LC-2-ad: the relative viability was 0.614 in test [1] (first compound 0.08 µM); 0.5 in test [1] (first compound 0.8 µM); 0.564 in test [1] (first compound 2.53 µM); 0.484 in test [1] (first compound 8 µM); 0.748 in the test with QS11 + Vorinostat (first compound 0.08 µM); 0.739 with QS11 + Vorinostat (first compound 0.253 µM). Moreover, the relative viability in the test with QS11 + Vorinostat (first compound 0.8 µM) turned out to be 0.531; with QS11 + Vorinostat (first compound 2.53 µM), 0.671; in the test with QS11 + Vorinostat (first compound 8 µM), 0.74; in the test with AZ628 + Linsitinib (first compound 0.08 µM), 0.882; with AZ628 + Linsitinib (first compound 0.253 µM), 0.829; with AZ628 + Linsitinib (first compound 0.8 µM), 0.883. In addition, the relative viability in the test with AZ628 + Linsitinib (first compound 2.53 µM) was 0.832; with AZ628 + Linsitinib (first compound 8 µM), 0.486; with QS11 + Tozasertib (first compound 0.08 µM), 0.445; with QS11 + Tozasertib (first compound 0.253 µM) it was 0.471; with QS11 + Tozasertib (first compound 0.8 µM), 0.476; with QS11 + Tozasertib (first compound 2.53 µM), 0.507. Also, the relative viability with QS11 + Tozasertib (first compound 8 µM) was determined as 0.439.

For the origin of these results see the supplement of paper PMC10307832.
